Experimental data taken from patent US11833139B2 (priority 2019, dated 2023).
Read-outs that look alike come from different tables or passages of the source.

How the values were obtained:
[1] = test system: A. baumannii HUMC1; experiment: MIC by broth microdilution (CLSI), carbapenem-resistant clinical isolate HUMC1; type: cell-based, Acinetobacter baumannii
Experimental: (§1) Two A. baumannii isolates were used in this example: HUMC1 (BV374) (Spellberg/Luna Laboratory, University of Southern California, Los Angeles, Calif.) and UNT091-1 (BV378) (UNT Health Science Center, Fort Worth, Tex.). The HUMC1 isolate is a hyper-virulent drug-resistant clinical strain isolated from a blood-stream infection. […] The isolates were stored at −80° C. as 20% (v/v) glycerol cultures.
(§2) MICs were determined by the broth microdilution method following the guidelines of the Clinical Laboratory Standards Institute (CLSI) using RPMI supplemented with […] cationic-adjusted Muller Hinton broth (CA-MHB) as assay medium. To prepare the bacterial inocula, 3-5 colonies of bacterial strains from over-night growth on ChromAgar orientation plates (CHROMagar Cat. No. RT412) were suspended in 5 mL saline. The turbidity of the bacterial suspension was adjusted to 0.5 McFarland units (equal to an optical density at 610 nm (OD610) to 0.08-0.1). This suspension was diluted 200-fold in RPMI supplemented with 10% (v/v) FCS to reach a final concentration of […] colony forming units (CFU)/mL and was used to inoculate the microtiter plates.
(§3) Serial 2-fold dilutions of the antibiotics were prepared in a separate 96-well plate polypropylene U-bottom plate (Ratiolab Cat. No. 6018111) in RPMI supplemented with 10% (v/v) FCS at 10-fold of the final test concentrations and 10 μl of the dilutions were transferred to new 96-well polystyrene U-bottom microtiter plates with a parafilm plate cover.
(§4) The plates were then inoculated with 90 μL per well of the prepared bacterial suspensions in using a multichannel pipette (Eppendorf), with the first column containing 4 wells each for growth control (no antibiotic). […] The MIC was recorded as the lowest concentration of the compound that inhibited bacterial growth by visual inspection. MICs were determined at least in duplicates and in the case of variations, the higher values are provided.

[2] = test system: A. baumannii UNT091; experiment: MIC by broth microdilution (CLSI), carbapenem-resistant clinical isolate UNT091; type: cell-based, Acinetobacter baumannii
Experimental: as §1, §2, §3, §4

| Compound | MIC ([1]; HUMC1, CA-MHB (Table 1)) [mg/L] | MIC ([1]; HUMC1, RPMI plus 10% FCS (Table 1)) [mg/L] | MIC ([2]; UNT091, CA-MHB (Table 1)) [mg/L] | MIC ([2]; UNT091, RPMI plus 10% FCS (Table 1)) [mg/L] | MIC ([1]; Acinetobacter baumannii, HUMC1, HUMC1, CA-MHB (Table 1), read-out: MIC) [mg/L] | MIC ([1]; Acinetobacter baumannii, HUMC1, HUMC1, RPMI plus 10% FCS (Table 1), read-out: MIC) [mg/L] | MIC ([2]; Acinetobacter baumannii, UNT091, UNT091, CA-MHB (Table 1), read-out: MIC) [mg/L] | MIC ([2]; Acinetobacter baumannii, UNT091, UNT091, RPMI plus 10% FCS (Table 1), read-out: MIC) [mg/L] |
| --- | --- | --- | --- | --- | --- | --- | --- | --- |
| gentamicin | >16 | >16 | >16 | >16 |  |  |  |  |
| C[C@@H](O)[C@H]1C(=O)N2C(C(=O)O)=C(S[C@@H]3CN[C@H](C(=O)N(C)C)C3)[C@H](C)[C@H]12 [meropenem] |  |  |  |  | > 16 | > 16 | > 16 | > 16 |
